US20250320184A1 (SIRONAX LTD., priority 2022, published 2025)

Molecular target: T1, SARM1 (50-724) (Homo sapiens, UniProt Q6SZW1)
T1 sequence (Q6SZW1 50-724): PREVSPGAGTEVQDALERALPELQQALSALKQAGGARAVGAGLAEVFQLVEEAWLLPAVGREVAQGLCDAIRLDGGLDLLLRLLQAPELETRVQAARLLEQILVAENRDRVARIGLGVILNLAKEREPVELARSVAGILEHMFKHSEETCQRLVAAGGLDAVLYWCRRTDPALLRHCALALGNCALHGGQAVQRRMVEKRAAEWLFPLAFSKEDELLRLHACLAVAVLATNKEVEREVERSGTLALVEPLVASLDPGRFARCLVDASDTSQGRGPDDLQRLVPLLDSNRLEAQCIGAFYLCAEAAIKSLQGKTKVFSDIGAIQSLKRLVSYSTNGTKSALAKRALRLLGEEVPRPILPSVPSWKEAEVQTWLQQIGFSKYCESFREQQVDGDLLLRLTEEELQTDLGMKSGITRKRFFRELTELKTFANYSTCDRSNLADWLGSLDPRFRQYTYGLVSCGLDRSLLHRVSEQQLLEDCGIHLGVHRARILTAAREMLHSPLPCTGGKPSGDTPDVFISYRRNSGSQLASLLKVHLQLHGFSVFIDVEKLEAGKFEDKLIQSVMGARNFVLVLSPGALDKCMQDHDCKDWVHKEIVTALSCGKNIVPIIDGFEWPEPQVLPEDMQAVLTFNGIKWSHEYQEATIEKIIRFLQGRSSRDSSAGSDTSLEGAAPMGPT
Test: biochemical
Experimental: An enzymatic assay was performed in a 384-well plate using Dulbecco's phosphate-buffered saline (PBS) as the reaction buffer. […] The reaction was initiated by adding a mixture of 200 μM nicotinamide mononucleotide (NMN) as activator and 100 μM NAD^+ as substrate. After 1 h of incubation at room temperature, the reaction was terminated with 10 times volume of 70% acetonitrile, then centrifuged at 3800 rpm for 10 min.

SMILES | IC50 [nM]
Cc1cc(F)cc(C(C)Nc2ccc3c(c2)C(=O)NCC3)c1 (racemic) [Example 93, 7-((1-(3-fluoro-5-methylphenyl)ethyl)amino)-3,4-dihydroisoquinolin-1(2H)-one] | 500 to 1000
Cc1cc(F)cc(S(=O)(=O)Nc2ccc3c(c2)C(=O)NCC3)c1 [Example 15A, 3-fluoro-5-methyl-N-(1-oxo-1,2,3,4-tetrahydroisoquinolin-7-yl)benzenesulfonamide] | > 1000
Cc1c(Cl)cccc1S(=O)(=O)Nc1ccc2c(c1)C(=O)NCC2 [Example 5A, 3-chloro-2-methyl-N-(1-oxo-1,2,3,4-tetrahydroisoquinolin-7-yl)benzenesulfonamide] | < 100
CCC(Nc1ccc2nc[nH]c(=O)c2c1)c1cccc(Cl)c1Cl (racemic) [Example 146, 6-[1-(2,3-dichlorophenyl)propylamino]-3H-quinazolin-4-one] | < 100
O=c1[nH]cc(F)c2ccc(NS(=O)(=O)c3cccc(Cl)c3Cl)cc12 [Compound 62, 2,3-dichloro-N-(4-fluoro-1-oxo-1,2-dihydroisoquinolin-7-yl)benzenesulfonamide] | < 100
CC(Nc1ccc2c(c1)c(C(N)=O)nn2C)c1nc(Cl)c(Cl)s1 (racemic) [Compound 310, 5-((1-(4,5-dichlorothiazol-2-yl)ethyl)amino)-1-methyl-1H-indazole-3-carboxamide] | < 100
Cc1c(F)cccc1S(=O)(=O)Nc1cccc(N2CCN(C)C2=O)c1 [Compound 28, 3-fluoro-2-methyl-N-(3-(3-methyl-2-oxoimidazolidin-1-yl)phenyl)benzenesulfonamide] | > 1000
CC[C@@H](C(N)=O)c1ccc(N[C@@H](C)c2nc(Cl)c(Cl)s2)cc1 (single isomer, unassigned) [Compound 302C] | 100 to 500
CC(Nc1ccc2nc[nH]c(=O)c2c1)c1cccc(Cl)c1Cl (single isomer, unassigned) [Example 152] | < 100
CC(Nc1ccc2c(c1)nc(C(N)=O)n2C)c1c(Cl)ccc(F)c1Cl (racemic) [Compound 263, 5-((1-(2,6-dichloro-3-fluorophenyl)ethyl)amino)-1-methyl-1H-benzo[d]imidazole-2-carboxamide] | < 100
Cc1n[nH]c(=O)c2cc(NC(C)c3nc(Cl)c(Cl)s3)ccc12 (single isomer, unassigned) [Example 239B] | > 1000
CCC(Nc1ccc2cc[nH]c(=O)c2c1)c1cccc(Cl)c1 (racemic) [Example 126, 7-((1-(3-chlorophenyl)propyl)amino)isoquinolin-1(2H)-one] | 100 to 500
CC1(C)C(=O)N(CC2CNC(=O)CO2)c2cc(NS(=O)(=O)c3cccc(Cl)c3Cl)ccc21 (centres unmarked) [Compound 333, 2,3-dichloro-N-(3,3-dimethyl-2-oxo-1-((5-oxomorpholin-2-yl)methyl)indolin-6-yl)benzenesulfonamide] | < 100
Cc1cnc2cc(NS(=O)(=O)c3cccc(Cl)c3Cl)ccc2c1 [Compound 26, 2,3-dichloro-N-(3-methylquinolin-7-yl)benzenesulfonamide] | < 100
O=C1NCCc2ccc(NS(=O)(=O)c3cccc(F)c3F)cc21 [Compound 54, 2,3-difluoro-N-(1-oxo-1,2,3,4-tetrahydroisoquinolin-7-yl)benzenesulfonamide] | > 1000
CCC(C(N)=O)c1ccc(NS(=O)(=O)c2cccc(Cl)c2Cl)cc1 (single isomer, unassigned) [Compound 270A] | 100 to 500
CC(Nc1cc(F)c2ncn(C3CC(O)C3)c(=O)c2c1)c1cncc(Cl)c1Cl (mixture of isomers) [Compound 348, 6-((1-(4,5-dichloropyridin-3-yl)ethyl)amino)-8-fluoro-3-(3-hydroxycyclobutyl)quinazolin-4(3H)-one] | < 100
O=C1NCCc2ccc(NS(=O)(=O)c3cc(F)cc(F)c3F)cc21 [Compound 51, 2,3,5-trifluoro-N-(1-oxo-3,4-dihydro-2H-isoquinolin-7-yl)benzenesulfonamide] | > 1000
CC(Nc1ccc2c(C(F)F)n(CC(N)=O)nc2c1)c1nc(Cl)c(Cl)s1 (single isomer, unassigned) [Compound 355B] | > 1000
Cc1c2ccc(NC(C)c3nc(Cl)c(Cl)s3)cc2nn1CC(N)=O (racemic) [Compound 312A, 2-(6-((1-(4,5-dichlorothiazol-2-yl)ethyl)amino)-3-methyl-2H-indazol-2-yl)acetamide] | < 100
CC(Nc1ccc2cc[nH]c(=O)c2c1)c1cccc(Cl)c1 (racemic) [Example 108, 7-((1-(3-chlorophenyl)ethyl)amino)isoquinolin-1(2H)-one] | 100 to 500

SMILES | IC50 [nM]
CC1(C)CN(C(N)=O)c2cc(NS(=O)(=O)c3cccc(Cl)c3Cl)ccc21 [Compound 242, 6-((2,3-dichlorophenyl)sulfonamido)-3,3-dimethylindoline-1-carboxamide] | < 100
CC(Nc1ccc2nc[nH]c(=O)c2n1)c1ccc(F)c(Cl)c1Cl (single isomer, unassigned) [Compound 386] | < 100
Cc1c(F)ccc(C(C)Nc2ccc3cc[nH]c(=O)c3c2)c1Cl (racemic) [Example 192, 7-[1-(2-chloro-4-fluoro-3-methyl-phenyl)ethylamino]-2H-isoquinolin-1-one] | < 100
CC(Nc1ccc2c(c1)C(=O)NCC2)c1cc(Cl)cc(Cl)n1 (racemic) [Example 97, 7-((1-(4,6-dichloropyridin-2-yl)ethyl)amino)-3,4-dihydroisoquinolin-1(2H)-one] | 500 to 1000
CC(Nc1ccc2cc[nH]c(=O)c2n1)c1cc(F)cc(Cl)c1Cl (racemic) [Example 205, 2-((1-(2,3-dichloro-5-fluorophenyl)ethyl)amino)-1,7-naphthyridin-8(7H)-one] | < 100
CC(Nc1ccc2c(C(F)(F)F)n(CC(N)=O)nc2c1)c1nc(Cl)c(Cl)s1 (single isomer, unassigned) [Compound 367] | < 100
Cc1n[nH]c2cc(NS(=O)(=O)c3cccc(Cl)c3Cl)ccc12 [Compound 58, 2,3-dichloro-N-(3-methyl-1H-indazol-6-yl)benzenesulfonamide] | < 100
CC(Nc1ccc2cn[nH]c(=O)c2c1)c1cc(F)cc(Cl)c1Cl (racemic) [Example 200, 7-((1-(2,3-dichloro-5-fluorophenyl)ethyl)amino)phthalazin-1(2H)-one] | 100 to 500
Cc1c2ccc(NC(C)c3nc(Cl)c(Cl)s3)cc2nn1C1CCOCC1 (racemic) [Compound 327, N-(1-(4,5-dichlorothiazol-2-yl)ethyl)-3-methyl-2-(tetrahydro-2H-pyran-4-yl)-2H-indazol-6-amine] | < 100
Cc1c(F)cccc1S(=O)(=O)Nc1ccc2cc[nH]c(=O)c2c1 [Compound 15, 3-fluoro-2-methyl-N-(1-oxo-1,2-dihydroisoquinolin-7-yl)benzenesulfonamide] | < 100
CC(Nc1ccc2c(c1)N(C(=O)CC(N)=O)CC2(C)C)c1sc(Cl)nc1Cl (racemic) [Compound 317, 3-(6-((1-(2,4-dichlorothiazol-5-yl)ethyl)amino)-3,3-dimethylindolin-1-yl)-3-oxopropanamide] | < 100
Cc1c(C#N)sc(C(C)Nc2ccc3c(C)n[nH]c(=O)c3c2)c1Cl (racemic) [Compound 350, 4-chloro-3-methyl-5-(1-((1-methyl-4-oxo-3,4-dihydrophthalazin-6-yl)amino)ethyl)thiophene-2-carbonitrile] | 100 to 500
Cc1nn(CCO)c2cc(NC(C)c3nc(Cl)c(Cl)s3)ccc12 (racemic) [Compound 301, 2-(6-((1-(4,5-dichlorothiazol-2-yl)ethyl)amino)-3-methyl-1H-indazol-1-yl)ethan-1-ol] | < 100
CC(Nc1ccc2cc[nH]c(=O)c2c1)c1cccc(F)c1 (racemic) [Example 113, 7-((1-(3-fluorophenyl)ethyl)amino)isoquinolin-1(2H)-one] | 500 to 1000
CC(Nc1ccc2c(c1)C(=O)NCC2)c1cc(F)cc(Cl)c1 (racemic) [Example 101, 7-((1-(3-chloro-5-fluorophenyl)ethyl)amino)-3,4-dihydroisoquinolin-1(2H)-one] | 100 to 500
Cc1cc(S(=O)(=O)Nc2ccc3c(c2)C(=O)NCC3)c(F)cc1F [Compound 30, 2,4-difluoro-5-methyl-N-(1-oxo-1,2,3,4-tetrahydroisoquinolin-7-yl)benzenesulfonamide] | 100 to 500
CC(Nc1ccc2cn[nH]c(=O)c2c1)c1c(Cl)ccc(Cl)c1Cl (racemic) [Example 198, 7-((1-(2,3,6-trichlorophenyl)ethyl)amino)phthalazin-1(2H)-one] | < 100
Cc1c(Br)cccc1S(=O)(=O)Nc1ccc2c(c1)C(=O)NCC2 [Compound 13, 3-bromo-2-methyl-N-(1-oxo-1,2,3,4-tetrahydroisoquinolin-7-yl)benzenesulfonamide] | < 100
CC(Nc1ccc2c(c1)NC(=O)CC2)c1nc(Cl)c(Cl)s1 (racemic) [Compound 230, 7-[1-(4,5-dichlorothiazol-2-yl)ethylamino]-3,4-dihydro-1H-quinolin-2-one] | 100 to 500
CCC(Nc1ccc2c(c1)C(=O)NCN2)c1cccc(Cl)c1Cl (racemic) [Example 147, 6-((1-(2,3-dichlorophenyl)propyl)amino)-2,3-dihydroquinazolin-4(1H)-one] | 100 to 500
